Source: patent US20090023804A1, “ELECTROCHEMICAL METHODS FOR REDOX CONTROL TO PRESERVE, STABILIZE AND ACTIVATE COMPOUNDS” (priority 2006, published 2009)

Experiments:
Format in all cases: physicochemical
[1] = Reduction potential of model compounds; conditions: pH 7 Buffer solution versus Normal Hydrogen Electrode (NHE)
Procedure: The redox potential of the solution is measured by open cell potential. […] Cyclic voltammetry can be used to identify the various oxidation states and redox potentials for future manipulation of redox state. Additionally, FIG. 5 in the present application provides a working example of this assay by depicting the cyclic voltammetry trace for hypericin. As shown, there are multiple peaks in the range of 0-2 volts, that are the result of the different redox states of hypericin. This is manipulated according to the preferred or desired redox state to be achieved.
Once the redox potential of the preparation is measured, the redox state may be adjusted to the preferred or desired condition at any stage as previously described.
The multiple oxidation states of the molecule of interest can be determined electrochemically by cyclic voltammetry. The first phase involves applying an excessive positive potential (oxidizing potential) and oxidizing all the species present to one form. Then the applied voltage is stepped down in increments while monitoring current. When the mid-point redox potential of a reaction is approached, molecules begin to be reduced, causing current through the circuit. After returning all molecules to the reduced form, the voltage is increased and the redox potentials of the reaction(s) are recorded. […]

[2] = Electrochemical oxidation of EGCG solutions at pH 6.0, followed by UV-visible absorbance and open circuit potential
From the text: An electrochemical cell was fabricated using a fine porosity glass frit in 1″ diameter glass tubing. The electrochemical cell houses the counter electrode and keeps the Ag/AgCl reference electrode and platinum working electrode separate from the counter electrode. This addition to the system allowed the preparation of bulk solution. The working electrode and reference electrode compartment was continuously stirred using a small stir bar and a magnetic stirrer to minimize gradient effects at the working electrode.
The EGCG solutions were oxidized using a positive potential to a visual end point. UV-visible spectral data were collected during these experiments, including the absorbance at 270 nm and 320 nm, corresponding to the phenol and quinone forms of EGCG, respectively. In addition, the open cell potential was recorded as experiments progressed. The active redox potentials and experimental endpoints were determined based on current and visual color changes.
Due to solution evaporation over time, the ratio of absorbance at 320 nm divided by the absorbance at 270 nm was determined in order to account for overall absorption increases. […] In addition, the visual change in solution color from clear to yellow and pink was also monitored as an indicator of degree of oxidation.
Stirred EGCG solutions in 0.1 M phosphate buffer with 0.1 M KCl at pH 6.0 were monitored. […]

[3] = Stability of electrochemically oxidized EGCG solutions after pH modification (UV-visible spectra)
From the text: Solutions were pH modified following electrochemical oxidation to observe stability. […] These samples were open to air, and no other precautions were taken to prevent oxidation by atmospheric oxygen.

Row | SMILES | Reduction Potential [1] [mV] | change in absorbance at 270 and 320 nm ([2]; after seven hours, 800 mV solution and control solution) | stability of electrochemically-induced changes (320 nm absorbance over time) ([2]; solutions left with no current after 68 h, until 120 h) | stability of pH-modified sample after electrochemical oxidation ([3]; EGCG solution pH 6.26, 1500 mV for 11.4 hours, then pH 8.43, open to air, after 7 days) | stability of pH-modified samples after electrochemical oxidation ([3]; EGCG solution pH 6.26, 1500 mV for 11.4 hours, then pH modified, open to air, after one day) | oxidation of control samples ([3]; control samples at pH 6.26, no potential)
1 | O=C(O)/C=C/c1ccc(O)c(O)c1 [Caffeic Acid] | 120 |  |  |  |  | 
2 | O=C(O[C@@H]1Cc2c(O)cc(O)cc2O[C@@H]1c1cc(O)c(O)c(O)c1)c1cc(O)c(O)c(O)c1 [Epigallocatechin gallate, epigallocatechin gallate] |  | no change | stable for over two days | relatively stable after 7 days | stable after one day | did not oxidize
3 | O=c1c(O)c(-c2ccc(O)c(O)c2)oc2cc(O)cc(O)c12 [Quercitin] | 120 |  |  |  |  | 
